Experiments:
[1] = target: Adenosine receptor A2a (Homo sapiens, UniProt P29274)
[2] = target: T1, Alpha-2A adrenergic receptor (Homo sapiens, UniProt P08913); format: functional, cell-based
T1 sequence (P08913 whole entry): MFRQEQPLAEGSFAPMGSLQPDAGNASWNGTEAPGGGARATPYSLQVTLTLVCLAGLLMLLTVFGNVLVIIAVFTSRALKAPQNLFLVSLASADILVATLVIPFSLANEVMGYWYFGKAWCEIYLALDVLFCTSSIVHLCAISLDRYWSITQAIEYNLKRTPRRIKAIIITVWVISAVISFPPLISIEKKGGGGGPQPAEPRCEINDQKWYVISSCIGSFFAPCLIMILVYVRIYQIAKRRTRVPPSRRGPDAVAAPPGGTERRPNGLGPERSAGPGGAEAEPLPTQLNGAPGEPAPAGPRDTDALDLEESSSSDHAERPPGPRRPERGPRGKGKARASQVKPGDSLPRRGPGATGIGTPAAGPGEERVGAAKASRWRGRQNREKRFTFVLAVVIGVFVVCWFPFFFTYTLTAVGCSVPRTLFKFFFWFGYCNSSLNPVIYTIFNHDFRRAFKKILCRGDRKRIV

[3] = target: T2, Type-1 angiotensin II receptor (Homo sapiens, UniProt P30556)
T2 sequence (P30556 whole entry): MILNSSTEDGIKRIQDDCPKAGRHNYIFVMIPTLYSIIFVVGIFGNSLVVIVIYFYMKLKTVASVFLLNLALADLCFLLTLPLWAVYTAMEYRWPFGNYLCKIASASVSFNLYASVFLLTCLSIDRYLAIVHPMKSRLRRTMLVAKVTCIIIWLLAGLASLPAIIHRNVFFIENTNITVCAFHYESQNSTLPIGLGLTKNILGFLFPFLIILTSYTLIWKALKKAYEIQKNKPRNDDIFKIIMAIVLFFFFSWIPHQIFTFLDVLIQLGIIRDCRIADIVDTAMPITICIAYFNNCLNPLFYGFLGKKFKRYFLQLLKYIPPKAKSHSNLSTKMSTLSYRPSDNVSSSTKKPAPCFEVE

[4] = target: Vasopressin V1a receptor (Homo sapiens, UniProt P37288)
Chain of Vasopressin V1a receptor (P37288 whole entry): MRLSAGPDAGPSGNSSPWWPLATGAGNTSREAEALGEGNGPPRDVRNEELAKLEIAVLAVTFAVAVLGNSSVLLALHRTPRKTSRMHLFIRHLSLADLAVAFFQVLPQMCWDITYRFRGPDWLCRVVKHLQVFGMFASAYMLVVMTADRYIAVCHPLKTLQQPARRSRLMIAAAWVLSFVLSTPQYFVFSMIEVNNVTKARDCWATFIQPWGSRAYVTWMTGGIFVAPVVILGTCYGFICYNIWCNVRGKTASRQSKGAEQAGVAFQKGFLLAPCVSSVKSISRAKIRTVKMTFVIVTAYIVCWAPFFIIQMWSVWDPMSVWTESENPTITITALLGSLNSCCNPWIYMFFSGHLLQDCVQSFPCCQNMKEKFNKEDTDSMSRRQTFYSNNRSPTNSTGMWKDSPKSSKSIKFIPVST

[5] = target: T3, Cholecystokinin receptor type A (Homo sapiens, UniProt P32238)
T3 sequence (P32238 whole entry): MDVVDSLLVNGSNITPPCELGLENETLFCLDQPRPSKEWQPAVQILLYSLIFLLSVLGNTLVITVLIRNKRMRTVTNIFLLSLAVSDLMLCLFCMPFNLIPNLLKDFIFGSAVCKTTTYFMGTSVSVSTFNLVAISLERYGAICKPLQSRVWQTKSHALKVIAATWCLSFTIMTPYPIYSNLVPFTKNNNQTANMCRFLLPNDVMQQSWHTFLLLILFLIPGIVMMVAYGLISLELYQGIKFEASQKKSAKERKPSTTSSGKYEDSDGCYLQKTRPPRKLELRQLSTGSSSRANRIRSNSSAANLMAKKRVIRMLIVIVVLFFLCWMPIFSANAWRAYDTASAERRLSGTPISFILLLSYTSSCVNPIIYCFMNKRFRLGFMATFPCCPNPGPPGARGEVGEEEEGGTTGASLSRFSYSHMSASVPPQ

[6] = target: Growth hormone secretagogue receptor type 1 (Homo sapiens, UniProt Q92847)
Chain of Growth hormone secretagogue receptor type 1 (Q92847 whole entry): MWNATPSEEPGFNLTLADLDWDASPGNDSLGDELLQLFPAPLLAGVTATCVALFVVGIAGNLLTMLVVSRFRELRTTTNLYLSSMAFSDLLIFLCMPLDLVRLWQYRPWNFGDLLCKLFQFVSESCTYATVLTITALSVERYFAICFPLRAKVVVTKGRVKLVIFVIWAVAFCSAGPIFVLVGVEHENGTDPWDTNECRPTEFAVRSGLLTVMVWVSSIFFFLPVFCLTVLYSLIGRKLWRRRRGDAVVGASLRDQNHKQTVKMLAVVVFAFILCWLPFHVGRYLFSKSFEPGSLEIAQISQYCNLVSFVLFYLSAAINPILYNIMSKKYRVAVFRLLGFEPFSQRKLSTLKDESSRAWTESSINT

[7] = target: T4, Progesterone receptor (Homo sapiens, UniProt P06401); format: functional
T4 sequence (P06401 whole entry): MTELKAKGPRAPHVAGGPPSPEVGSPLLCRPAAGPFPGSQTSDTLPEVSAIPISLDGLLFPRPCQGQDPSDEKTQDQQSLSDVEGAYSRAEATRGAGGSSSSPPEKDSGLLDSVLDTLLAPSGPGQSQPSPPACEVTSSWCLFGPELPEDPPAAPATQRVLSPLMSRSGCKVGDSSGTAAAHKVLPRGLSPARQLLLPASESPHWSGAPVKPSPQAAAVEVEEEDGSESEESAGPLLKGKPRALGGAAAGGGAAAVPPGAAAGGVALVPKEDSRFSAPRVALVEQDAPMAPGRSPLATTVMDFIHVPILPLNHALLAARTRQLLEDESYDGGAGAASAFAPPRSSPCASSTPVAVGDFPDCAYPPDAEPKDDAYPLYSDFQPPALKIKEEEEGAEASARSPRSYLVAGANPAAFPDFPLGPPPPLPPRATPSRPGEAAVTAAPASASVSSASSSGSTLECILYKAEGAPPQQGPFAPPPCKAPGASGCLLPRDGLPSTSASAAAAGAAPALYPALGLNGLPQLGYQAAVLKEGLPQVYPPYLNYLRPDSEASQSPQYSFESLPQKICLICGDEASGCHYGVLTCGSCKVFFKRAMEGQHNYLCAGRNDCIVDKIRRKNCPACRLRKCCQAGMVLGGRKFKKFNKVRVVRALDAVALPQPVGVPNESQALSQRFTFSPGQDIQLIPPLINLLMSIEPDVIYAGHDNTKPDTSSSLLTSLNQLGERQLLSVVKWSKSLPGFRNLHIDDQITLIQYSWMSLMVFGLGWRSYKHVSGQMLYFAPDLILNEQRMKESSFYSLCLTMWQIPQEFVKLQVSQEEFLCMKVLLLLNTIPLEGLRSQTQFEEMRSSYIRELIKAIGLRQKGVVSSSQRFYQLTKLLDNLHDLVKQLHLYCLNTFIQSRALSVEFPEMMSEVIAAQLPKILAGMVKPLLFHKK

[8] = target: cGMP-inhibited 3',5'-cyclic phosphodiesterase 3A (Homo sapiens, UniProt Q14432); format: functional
Chain of cGMP-inhibited 3',5'-cyclic phosphodiesterase 3A (Q14432 whole entry): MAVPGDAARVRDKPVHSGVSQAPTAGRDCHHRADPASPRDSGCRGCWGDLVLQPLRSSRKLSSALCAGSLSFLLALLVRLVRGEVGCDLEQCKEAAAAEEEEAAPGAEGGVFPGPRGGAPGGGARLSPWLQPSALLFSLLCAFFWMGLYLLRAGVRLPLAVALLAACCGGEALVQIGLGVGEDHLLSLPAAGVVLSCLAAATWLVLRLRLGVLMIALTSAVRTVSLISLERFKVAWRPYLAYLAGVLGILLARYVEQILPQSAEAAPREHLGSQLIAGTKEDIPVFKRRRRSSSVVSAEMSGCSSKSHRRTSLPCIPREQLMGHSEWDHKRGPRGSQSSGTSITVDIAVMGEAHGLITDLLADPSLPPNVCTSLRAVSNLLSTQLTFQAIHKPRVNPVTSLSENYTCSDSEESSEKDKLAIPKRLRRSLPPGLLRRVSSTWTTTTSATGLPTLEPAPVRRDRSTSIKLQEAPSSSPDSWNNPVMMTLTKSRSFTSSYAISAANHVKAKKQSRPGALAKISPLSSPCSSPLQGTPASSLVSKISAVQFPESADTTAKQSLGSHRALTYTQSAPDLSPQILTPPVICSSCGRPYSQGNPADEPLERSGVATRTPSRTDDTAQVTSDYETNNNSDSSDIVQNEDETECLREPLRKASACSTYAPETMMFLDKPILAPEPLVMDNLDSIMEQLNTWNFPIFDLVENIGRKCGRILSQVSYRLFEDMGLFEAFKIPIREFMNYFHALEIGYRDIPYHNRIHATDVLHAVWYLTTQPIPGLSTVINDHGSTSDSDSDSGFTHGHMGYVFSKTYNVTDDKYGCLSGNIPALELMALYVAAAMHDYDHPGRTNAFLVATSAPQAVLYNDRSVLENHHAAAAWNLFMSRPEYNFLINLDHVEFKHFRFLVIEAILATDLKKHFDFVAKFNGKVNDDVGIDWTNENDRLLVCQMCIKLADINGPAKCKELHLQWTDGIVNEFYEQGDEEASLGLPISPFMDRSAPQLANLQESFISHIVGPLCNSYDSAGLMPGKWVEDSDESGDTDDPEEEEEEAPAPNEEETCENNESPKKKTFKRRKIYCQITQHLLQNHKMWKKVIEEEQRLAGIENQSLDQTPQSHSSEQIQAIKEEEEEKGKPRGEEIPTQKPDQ

[9] = target: D(3) dopamine receptor (Homo sapiens, UniProt P35462)
Chain of D(3) dopamine receptor (P35462 whole entry): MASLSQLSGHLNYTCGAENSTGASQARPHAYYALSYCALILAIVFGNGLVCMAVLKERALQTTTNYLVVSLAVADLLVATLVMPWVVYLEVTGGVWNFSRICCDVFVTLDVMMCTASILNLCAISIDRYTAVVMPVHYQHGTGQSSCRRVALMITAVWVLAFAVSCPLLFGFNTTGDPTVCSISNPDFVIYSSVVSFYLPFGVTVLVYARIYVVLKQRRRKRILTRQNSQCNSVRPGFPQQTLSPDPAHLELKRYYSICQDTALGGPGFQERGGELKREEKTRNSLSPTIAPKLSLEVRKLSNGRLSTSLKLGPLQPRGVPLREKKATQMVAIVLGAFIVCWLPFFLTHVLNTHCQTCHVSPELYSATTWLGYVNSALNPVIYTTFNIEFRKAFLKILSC
Note: assay procedure not described here.

Chain of Adenosine receptor A2a (P29274 whole entry): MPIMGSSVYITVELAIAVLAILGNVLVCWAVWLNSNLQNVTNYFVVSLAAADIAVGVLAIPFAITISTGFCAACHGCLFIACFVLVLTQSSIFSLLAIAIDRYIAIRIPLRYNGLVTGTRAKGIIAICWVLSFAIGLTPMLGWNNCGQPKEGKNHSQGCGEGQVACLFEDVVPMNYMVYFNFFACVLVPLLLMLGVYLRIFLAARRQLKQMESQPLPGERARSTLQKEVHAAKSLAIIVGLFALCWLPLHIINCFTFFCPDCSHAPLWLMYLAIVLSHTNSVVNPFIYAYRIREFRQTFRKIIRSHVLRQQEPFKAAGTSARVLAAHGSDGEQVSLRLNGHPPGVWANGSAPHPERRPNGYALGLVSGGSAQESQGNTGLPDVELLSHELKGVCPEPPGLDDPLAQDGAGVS

SMILES	AC50 [1] [µM]	AC50 [2] [µM]	AC50 [3] [µM]	AC50 [4] [µM]	AC50 [5] [µM]	AC50 [6] [µM]	AC50 [7] [µM]	AC50 [8] [µM]	AC50 [9] [µM]
CC(=N)N1CC[C@H](SC2=C(C(=O)O)N3C(=O)[C@H]([C@@H](C)O)[C@H]3C2)C1	300	> 300	> 300	> 300	> 300	> 300	> 300	> 300	> 300
CC(/C=C1\SC(=S)N(CC(=O)O)C1=O)=C\c1ccccc1	26	> 30	1.5	28	> 30	> 30	> 30	> 30	–
CC1(C)S[C@@H]2[C@H](NC(=O)[C@H](N)c3ccc(O)cc3)C(=O)N2[C@H]1C(=O)O [AMOXICILLIN]	> 30	> 30	> 30	> 30	> 30	> 30	> 30	> 30	> 30
CNCC[C@@H](Oc1ccccc1C)c1ccccc1 [ATOMOXETINE]	> 30	–	> 30	> 30	> 30	> 30	> 30	> 30	26
CCc1oc2ccccc2c1C(=O)c1cc(Br)c(O)c(Br)c1 [BENZBROMARONE]	> 30	3.74	16	> 30	> 30	> 30	> 30	9.4	> 30
C=C(C)[C@@H]1CCC(C)=C[C@H]1c1c(O)cc(CCCCC)cc1O [CANNABIDIOL]	> 30	> 10	> 30	> 30	18.3	> 30	> 30	25	> 30
[H]/N=C(\N/C(=N/[H])NCCCCCCNC(=N)NC(=N)Nc1ccc(Cl)cc1)Nc1ccc(Cl)cc1 [CHLORHEXIDINE]	> 30	4.34	> 10	14.7	15.9	1	> 30	11	3.2
COC(=O)[C@H](c1ccccc1Cl)N1CCc2sccc2C1 [CLOPIDOGREL]	> 30	11	> 30	> 30	> 30	> 30	> 30	> 30	> 30
CC1(C)O[C@@H]2C[C@H]3[C@@H]4C[C@H](F)C5=CC(=O)C=C[C@]5(C)[C@H]4[C@@H](O)C[C@]3(C)[C@]2(C(=O)CO)O1 [FLUNISOLIDE]	> 30	2	> 30	–	> 30	> 30	0.64	> 30	> 30
Nc1nc(O)c2ncn(COC(CO)CO)c2n1 [GANCICLOVIR]	> 30	> 30	> 30	–	> 30	> 30	> 30	> 30	> 30
C[C@H]1Oc2cc(cnc2N)-c2c(nn(C)c2C#N)CN(C)C(=O)c2ccc(F)cc21 [LORLATINIB]	> 30	> 30	> 30	> 30	> 30	> 30	> 30	> 30	> 30
CC[C@@H](CO)NC(=O)[C@@H]1C=C2c3cccc4[nH]cc(c34)C[C@H]2N(C)C1 [METHYLERGONOVINE]	> 30	17	> 30	> 30	> 30	> 30	> 30	> 30	0.29
CNCCC=C1c2ccccc2CCc2ccccc21 [NORTRIPTYLINE]	> 30	–	> 30	> 30	> 30	> 30	> 30	–	–
COc1ccc(Cc2nccc3cc(OC)c(OC)cc23)cc1OC [PAPAVERINE]	> 30	> 30	> 30	–	> 30	> 30	> 30	–	> 30
CNC(=O)c1cc(Oc2ccc(NC(=O)Nc3ccc(Cl)c(C(F)(F)F)c3)c(F)c2)ccn1 [REGORAFENIB]	> 30	–	–	–	–	–	> 30	> 30	> 30
NC(=O)c1ncn([C@@H]2O[C@H](CO)[C@@H](O)[C@H]2O)n1 [RIBAVIRIN]	> 10	> 10	> 10	–	> 10	> 10	> 10	> 30	> 30
CCCN(CCC)CCc1cccc2c1CC(=O)N2 [ROPINIROLE]	> 30	12	> 30	> 30	> 30	> 30	> 30	> 30	–
CCCN(CCc1cccs1)[C@H]1CCc2c(O)cccc2C1 [ROTIGOTINE]	> 30	> 10	> 30	> 30	> 30	29	> 30	> 30	–
CC[C@H]1OC(=O)[C@H](C)[C@@H](O[C@H]2C[C@@](C)(OC)[C@@H](O)[C@H](C)O2)[C@H](C)[C@@H](O[C@@H]2O[C@H](C)C[C@H](N(C)C)[C@H]2O)[C@](C)(O)C[C@@H](C)/C(=N\OCOCCOC)[C@H](C)[C@@H](O)[C@]1(C)O [ROXITHROMYCIN]	> 30	> 30	> 30	–	> 30	> 30	> 30	> 30	> 30
CC(C)N(CCCCOCC(=O)NS(C)(=O)=O)c1cnc(-c2ccccc2)c(-c2ccccc2)n1 [SELEXIPAG]	> 30	> 30	–	> 30	> 30	> 30	> 30	> 30	> 30

Reference: ChEMBL document CHEMBL5291721, “A preclinical secondary pharmacology resource illuminates target-adverse drug reaction associations of marketed drugs” (Nat Commun, 2023)
